Results from PubChem BioAssay AID1963829 (Molecular Pharmacology Branch, DTP, NCI, 2024).

System: 935938-334-R-J1-PDC complex spheroid viability
Assay: Anticancer human tumor 935938-334-R-J1-PDC patient-derived small intestine adenocarcinoma cell line growth inhibition [POLQ]
Details: for IC50: curve of first compound; for viability, T/C: stronger effect = lower value
Summary of the method: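 Growth inhibition in 3D: complex spheroids (tumor PDC, HUVEC, MSC) treated with POLQ inhibitor combinations; where Cmax unknown, highest tested concentration 10 microM, except SN-38 at 1 microM.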

[1] = second compound 0.0316 µM, first compound 0.0316 µM
[2] = second compound 0.0316 µM, first compound 0.1 µM
[3] = second compound 0.0316 µM, first compound 0.316 µM
[4] = second compound 0.0316 µM, first compound 1 µM
[5] = second compound 0.0316 µM, first compound 3.16 µM
[6] = second compound 0.0316 µM, first compound 10 µM
[7] = second compound 0.1 µM, first compound 0.0316 µM
[8] = second compound 0.1 µM, first compound 0.1 µM
[9] = second compound 0.1 µM, first compound 0.316 µM
[10] = second compound 0.1 µM, first compound 1 µM
[11] = second compound 0.1 µM, first compound 3.16 µM
[12] = second compound 0.1 µM, first compound 10 µM
[13] = second compound 0.316 µM, first compound 0.0316 µM
[14] = second compound 0.316 µM, first compound 0.1 µM
[15] = second compound 0.316 µM, first compound 0.316 µM
[16] = second compound 0.316 µM, first compound 1 µM
[17] = second compound 0.316 µM, first compound 3.16 µM
[18] = second compound 0.316 µM, first compound 10 µM
[19] = second compound 1 µM, first compound 0.0316 µM
[20] = second compound 1 µM, first compound 0.1 µM
[21] = second compound 1 µM, first compound 0.316 µM
[22] = second compound 1 µM, first compound 1 µM
[23] = second compound 1 µM, first compound 3.16 µM
[24] = second compound 1 µM, first compound 10 µM
[25] = second compound 3.16 µM, first compound 0.0316 µM
[26] = second compound 3.16 µM, first compound 0.1 µM
[27] = second compound 3.16 µM, first compound 0.316 µM
[28] = second compound 3.16 µM, first compound 1 µM
[29] = second compound 3.16 µM, first compound 3.16 µM
[30] = second compound 3.16 µM, first compound 10 µM
[31] = second compound 10 µM, first compound 0.0316 µM
[32] = second compound 10 µM, first compound 0.1 µM
[33] = second compound 10 µM, first compound 0.316 µM
[34] = second compound 10 µM, first compound 1 µM
[35] = second compound 10 µM, first compound 3.16 µM
[36] = second compound 10 µM, first compound 10 µM
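Further: spheroids exposed to drugs for seven days before viability read.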
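Wherever viability, T/C is given: 100% = DMSO vehicle control wells.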

CC1COCCN1c1cc(-c2ccnn2C)c2ccnc(-c3ccn[nH]3)c2n1 (stereo unspecified) + Cc1cccc(N(C)C(=O)C2C(O)CCN2c2nc(C)cc(C(F)(F)F)c2C#N)c1
IC50 (second compound 0.0316 µM): 108 nM
IC50 (second compound 0.1 µM): 97.8 nM
IC50 (second compound 0.316 µM): 107 nM
IC50 (second compound 1 µM): 125 nM
IC50 (second compound 3.16 µM): 114 nM
IC50 (second compound 10 µM): 113 nM
viability, T/C [1]: 93.5%
viability, T/C [2]: 52.1%
viability, T/C [3]: 20.2%
viability, T/C [4]: 17.5%
viability, T/C [5]: 20.1%
viability, T/C [6]: 22%
viability, T/C [7]: 105%
viability, T/C [8]: 48.6%
viability, T/C [9]: 29.4%
viability, T/C [10]: 20.7%
viability, T/C [11]: 18.7%
viability, T/C [12]: 23.3%
viability, T/C [13]: 79.2%
viability, T/C [14]: 51.7%
viability, T/C [15]: 23.6%
viability, T/C [16]: 17.7%
viability, T/C [17]: 18.9%
viability, T/C [18]: 20.8%
viability, T/C [19]: 90.2%
viability, T/C [20]: 54.9%
viability, T/C [21]: 29.8%
viability, T/C [22]: 16.4%
viability, T/C [23]: 21.9%
viability, T/C [24]: 22%
viability, T/C [25]: 83.3%
viability, T/C [26]: 53.4%
viability, T/C [27]: 23.5%
viability, T/C [28]: 17.2%
viability, T/C [29]: 18.5%
viability, T/C [30]: 23%
viability, T/C [31]: 86%
viability, T/C [32]: 51.9%
viability, T/C [33]: 32.1%
viability, T/C [34]: 18.4%
viability, T/C [35]: 22.6%
viability, T/C [36]: 22.8%

CC1COCCN1c1cc(C2(S(C)(=N)=O)CC2)nc(-c2ccnc3[nH]ccc23)n1 (stereo unspecified) + Cc1cccc(N(C)C(=O)C2C(O)CCN2c2nc(C)cc(C(F)(F)F)c2C#N)c1
IC50 (second compound 0.0316 µM): 2890 nM
IC50 (second compound 0.1 µM): 3050 nM
IC50 (second compound 0.316 µM): 2440 nM
IC50 (second compound 1 µM): 2520 nM
IC50 (second compound 3.16 µM): 1570 nM
IC50 (second compound 10 µM): 2000 nM
viability, T/C [1]: 116%
viability, T/C [2]: 91.8%
viability, T/C [3]: 91.4%
viability, T/C [4]: 96.2%
viability, T/C [5]: 46.1%
viability, T/C [6]: 21.4%
viability, T/C [7]: 113%
viability, T/C [8]: 109%
viability, T/C [9]: 86.1%
viability, T/C [10]: 84.5%
viability, T/C [11]: 44.6%
viability, T/C [12]: 20.2%
viability, T/C [13]: 82.6%
viability, T/C [14]: 110%
viability, T/C [15]: 69.1%
viability, T/C [16]: 88.1%
viability, T/C [17]: 38.9%
viability, T/C [18]: 19.9%
viability, T/C [19]: 110%
viability, T/C [20]: 89%
viability, T/C [21]: 97.6%
viability, T/C [22]: 70.1%
viability, T/C [23]: 44.4%
viability, T/C [24]: 21.8%
viability, T/C [25]: 97.7%
viability, T/C [26]: 112%
viability, T/C [27]: 72.3%
viability, T/C [28]: 62.9%
viability, T/C [29]: 36.4%
viability, T/C [30]: 23.5%
viability, T/C [31]: 116%
viability, T/C [32]: 104%
viability, T/C [33]: 117%
viability, T/C [34]: 68%
viability, T/C [35]: 41.2%
viability, T/C [36]: 20.1%

CCCS(=O)(=O)Nc1ccc(F)c(C(=O)c2c[nH]c3ncc(-c4ccc(Cl)cc4)cc23)c1F + Cc1cccc(N(C)C(=O)C2C(O)CCN2c2nc(C)cc(C(F)(F)F)c2C#N)c1
IC50 (second compound 0.0316 µM): > 10000 nM
IC50 (second compound 0.1 µM): 9270 nM
IC50 (second compound 0.316 µM): 9180 nM
IC50 (second compound 1 µM): 9750 nM
IC50 (second compound 3.16 µM): > 10000 nM
IC50 (second compound 10 µM): 9010 nM
viability, T/C [1]: 85.3%
viability, T/C [2]: 97.4%
viability, T/C [3]: 117%
viability, T/C [4]: 147%
viability, T/C [5]: 146%
viability, T/C [6]: 51%
viability, T/C [7]: 114%
viability, T/C [8]: 119%
viability, T/C [9]: 166%
viability, T/C [10]: 121%
viability, T/C [11]: 112%
viability, T/C [12]: 45%
viability, T/C [13]: 97.4%
viability, T/C [14]: 115%
viability, T/C [15]: 119%
viability, T/C [16]: 120%
viability, T/C [17]: 120%
viability, T/C [18]: 44.8%
viability, T/C [19]: 95.7%
viability, T/C [20]: 125%
viability, T/C [21]: 121%
viability, T/C [22]: 148%
viability, T/C [23]: 131%
viability, T/C [24]: 48.2%
viability, T/C [25]: 88.9%
viability, T/C [26]: 108%
viability, T/C [27]: 123%
viability, T/C [28]: 151%
viability, T/C [29]: 113%
viability, T/C [30]: 51.4%
viability, T/C [31]: 106%
viability, T/C [32]: 109%
viability, T/C [33]: 127%
viability, T/C [34]: 146%
viability, T/C [35]: 149%
viability, T/C [36]: 42.1%
